In publication PMC11467737, “Osteocalcin binds to a GPRC6A Venus fly trap allosteric site to positively modulate GPRC6A signaling” (FASEB BioAdvances, 2024):
Bridge positions count the residues as written; N and C are the ends. Ends that are not written are not given here.

Assays:
[1] = test system: wild‐type (Gprc6a +/+) and global knock out (Gprc6a −/−) mice; test: Serum IL-6 (ELISA) after intraperitoneal injection in mice; assay type: in vivo, mouse; conditions: 2 nmol/g IP, 24 h, n ≥ 5
Experimental: (§1) 8‐week‐old wild‐type (Gprc6a ^ +/+ ) and global knock out (Gprc6a ^ −/− ) mice were injected intraperitoneally with Ocn 20–29 (2 nmol/g body weight), or vehicle (saline; 10 μL/g body weight). Serum was collected at 24 h after intraperitoneal injection. Blood glucose levels were measured by using blood glucose strips and the Accu‐Check glucometer as described.[7], [31] A mouse IL‐6 ELISA Kit was purchased from Invitrogen (Waltham, MA, USA). Rat/Mouse FGF‐21ELISA Kit was obtained from Millipore Sigma (Burlington, MA, USA).
(§2) The Gprc6a ^ −/− mouse model was created by replacing exon 2 of the GPRC6A gene with the hygromycin resistance gene, as described previously.[32] Mice were maintained and used in accordance with recommendations as described (National Research Council 1985; Guide for the Care and Use of Laboratory Animals Department of Health and Human Services Publication NIH 86–23, Institute on Laboratory Animal Resources, Rockville, MD) and following guidelines established by the University of Tennessee Health Science Center Institutional Animal Care and Use Committee. The animal study protocol was approved by the institutional review boards at University of Tennessee Health Science Center Institutional Animal Care and Use Committee.

[2] = test system: wild‐type (Gprc6a +/+) and global knock out (Gprc6a −/−) mice; test: Blood glucose after intraperitoneal injection in mice; assay type: in vivo, mouse; conditions: 2 nmol/g intraperitoneal, 24 h, n ≥ 5
Experimental: as §1, §2

[3] = test system: wild‐type (Gprc6a +/+) and global knock out (Gprc6a −/−) mice; test: Serum FGF-21 (ELISA) after intraperitoneal injection in mice; assay type: in vivo, mouse; conditions: 2 nmol/g IP, 24 h, n ≥ 5
Experimental: as §1, §2

human GPRC6A isoform 2 [4] = biological target: T1, human GPRC6A isoform 2 (Homo sapiens, UniProt Q5T6X5); test: ERK activation (ELISA) in HEK-293 cells transfected with human GPRC6A isoform 2; assay type: cell-based; conditions: Ocn 1.73-26.0 nM, 1 mM calcium, 15 min, Figure 2B
T1 construct: expressed in transfected cells; host or cells: HEK-293
T1 sequence (Q5T6X5 19-751 isoform Q5T6X5-2 limits assumed): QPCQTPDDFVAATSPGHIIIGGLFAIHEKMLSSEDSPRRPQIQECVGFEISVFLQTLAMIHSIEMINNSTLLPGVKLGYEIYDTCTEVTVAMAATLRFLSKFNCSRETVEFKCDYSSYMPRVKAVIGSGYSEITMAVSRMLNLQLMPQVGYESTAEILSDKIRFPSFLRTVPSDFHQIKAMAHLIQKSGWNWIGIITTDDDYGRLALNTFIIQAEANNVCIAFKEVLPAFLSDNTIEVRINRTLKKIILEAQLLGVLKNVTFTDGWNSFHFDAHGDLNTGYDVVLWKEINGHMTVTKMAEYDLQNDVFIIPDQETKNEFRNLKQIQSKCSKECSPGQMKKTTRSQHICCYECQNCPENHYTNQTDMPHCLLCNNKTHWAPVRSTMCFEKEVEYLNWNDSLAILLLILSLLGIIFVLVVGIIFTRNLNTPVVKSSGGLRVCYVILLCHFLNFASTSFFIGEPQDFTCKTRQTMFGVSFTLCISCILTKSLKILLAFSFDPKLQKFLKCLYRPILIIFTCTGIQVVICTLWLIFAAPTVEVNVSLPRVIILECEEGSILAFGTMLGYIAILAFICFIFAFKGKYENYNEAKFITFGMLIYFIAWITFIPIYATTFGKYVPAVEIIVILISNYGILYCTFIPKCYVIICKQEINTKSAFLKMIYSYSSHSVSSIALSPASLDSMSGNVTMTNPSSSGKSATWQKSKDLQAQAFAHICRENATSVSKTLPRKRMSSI
Experimental: All culture reagents were from Invitrogen (Waltham, MA, USA). Human embryonic kidney HEK‐293 cells were obtained from American Type Culture Collection and cultured in DMEM medium supplemented with 10% fetal bovine serum and 1% Penicillin/Streptomycin (P/S). Briefly, HEK‐293 cells transfected with/without human GPRC6A isoforms cDNA plasmids were starved by overnight incubation in serum‐free DMEM/F12 containing 0.1% bovine serum albumin (BSA) and stimulated with various ligands at different doses. […]

human GPRC6A isoform 2 [5] = biological target: T1, human GPRC6A isoform 2; test: cAMP accumulation in HEK-293 cells transfected with human GPRC6A isoform 2; assay type: cell-based; conditions: isoform 2; Ocn 1.73-26.0 nM; 1 mM calcium; 40 min; Figure 2C
Experimental: HEK‐293 transfected with human GPRC6A isoform cDNA plasmids cells (10^5 cells/well)[30] were cultured in 24‐well plates in DMEM supplemented with 10% fetal bovine serum and 1% penicillin/streptomycin (100 U/mL of penicillin and 100 μg/mL of streptomycin) for 48 h followed by 4 h incubation in DMEM/F12 containing 0.1% BSA and 0.5 mM IBMX to achieve quiescence and preventing cAMP degradation. Quiescent cells were treated with vehicle control, various ligands at concentration as indicated for 40 min at 37°C. Then, the reaction was stopped, and the cells lysed with 0.5 mL 0.1 N HCl. cAMP levels were measured by using Cyclic AMP EIA kit (Cayman Chemical; Ann Arbor, MA, USA) following the manufacture's protocol.

Substance | Serum IL-6 response ([1]; Gprc6a −/− mice) | Serum IL-6 level versus vehicle ([1]; wild-type Gprc6a +/+ mice) | Blood glucose response ([2]; Gprc6a −/− mice) | Reduction of blood glucose levels ([2]; wild-type Gprc6a +/+ mice, 8 weeks old, single injection, vehicle saline had no effect) | Serum FGF-21 response ([3]; Gprc6a −/− mice) | Serum FGF-21 level versus vehicle ([3]; wild-type Gprc6a +/+ mice) | Ocn-induced ERK activation, dose response (human GPRC6A isoform 2 [4]) | Ocn-induced cAMP accumulation, dose response (human GPRC6A isoform 2 [5])
REVCELNPDC (disulfide 4-10 (inferred)) [Ocn 20–29, synthesized human Ocn decapeptide fragment located in the middle of the protein] | lost | significant increase | lost | ~ 10% | lost | significant increase | – | –
osteocalcin (YLYQWLGAPVPYPDPLEPRREVCELNPDCDELADHIGFQEAYRRFYGPV; not fully specified; ends and bridges not checked; UniProt P02818 52-100, looked up) [Ocn 1–49, full human Ocn (49 aa) synthesized by BioMatik; methods also describe decarboxylated Ocn purified from bovine tibial bone, reference compound] | – | – | – | – | – | – | attenuated ERK response | complete loss of cAMP activation
